≈ marks a conversion by molar mass, not a printed value. Calls of active or inactive are those of the source. The rule behind the calls is not given here.

One test relates to NCI-H460. Description: Antiproliferative activity against human NCI-H460 cells after 72 hrs. Format: functional, cell-based. Particulars: NCI-H460, 72 h.
In turn, `CC(=O)OC(C)(C)/C=C/C(=O)[C@@](C)(O)[C@H]1CC[C@@]2(C)[C@@H]3CC=C4[C@@H](C[C@H](O)C(=O)C4(C)C)[C@]3(C)C(=O)C[C@]12C` [16-DEOXYCUCURBITACIN B] displayed an IC50 of 0.06 µg/mL (≈ 0.111 µM).
Still for that read-out and setting: with `CC(=O)O[C@H](C[C@@H](OC(C)=O)C(C)(C)O)[C@@H](C)[C@H]1[C@H](O)C[C@@]2(C)[C@@H]3CC=C4[C@@H](CCC(=O)C4(C)C)[C@]3(C)C(=O)C[C@]12C` [18-DEOXYLEUCOPAXILLONE A] the figure was 10.6 µg/mL (≈ 18 µM); with `CC(=O)OC(C)(C)/C=C/C(=O)[C@](C)(O)[C@H]1[C@H](O)C[C@@]2(C)[C@@H]3CC=C4[C@H](C[C@H](O)C(=O)C4(C)C)[C@]3(C)C(=O)C[C@]12C` [CUCURBITACIN B], 0.011 µg/mL (≈ 0.0197 µM); with `CC(C)(O)/C=C/C(=O)[C@](C)(O)[C@H]1[C@H](O)C[C@@]2(C)[C@@H]3CC=C4[C@@H](C[C@H](O)C(=O)C4(C)C)[C@]3(C)C(=O)C[C@]12C` [CUCURBITACIN D], 0.12 µg/mL (≈ 0.232 µM).
Regarding `CC(=O)O[C@H](C[C@@H](OC(C)=O)C(C)(C)O)[C@@H](C)[C@H]1CC[C@@]2(C)[C@@H]3CC=C4[C@@H](CCC(=O)C4(C)C)[C@]3(C)CC[C@]12CO` [LEUCOPAXILLONE A], inhibition was half-maximal at 3.5 µg/mL (≈ 6.09 µM) (IC50).
Regarding `CC(=O)O[C@H](C[C@@H](OC(C)=O)C(C)(C)O)[C@@H](C)[C@H]1CC[C@@]2(C)[C@@H]3CC=C4[C@@H](CCC(=O)C4(C)C)[C@]3(C)[C@]3(O)C[C@]12CO3` [LEUCOPAXILLONE B], half-maximal inhibition (IC50) was put at 0.3 µg/mL (≈ 0.51 µM).
The same measure, in the same setting: with `CC[C@@]1(O)C(=O)OCc2c1cc1n(c2=O)Cc2cc3c(CN(C)C)c(O)ccc3nc2-1` [TOPOTECAN] the figure was 0.008 µg/mL (≈ 0.019 µM).

The target in another test is T1, DNA topoisomerase 1 (Homo sapiens) (UniProt P11387).
T1 sequence (whole entry): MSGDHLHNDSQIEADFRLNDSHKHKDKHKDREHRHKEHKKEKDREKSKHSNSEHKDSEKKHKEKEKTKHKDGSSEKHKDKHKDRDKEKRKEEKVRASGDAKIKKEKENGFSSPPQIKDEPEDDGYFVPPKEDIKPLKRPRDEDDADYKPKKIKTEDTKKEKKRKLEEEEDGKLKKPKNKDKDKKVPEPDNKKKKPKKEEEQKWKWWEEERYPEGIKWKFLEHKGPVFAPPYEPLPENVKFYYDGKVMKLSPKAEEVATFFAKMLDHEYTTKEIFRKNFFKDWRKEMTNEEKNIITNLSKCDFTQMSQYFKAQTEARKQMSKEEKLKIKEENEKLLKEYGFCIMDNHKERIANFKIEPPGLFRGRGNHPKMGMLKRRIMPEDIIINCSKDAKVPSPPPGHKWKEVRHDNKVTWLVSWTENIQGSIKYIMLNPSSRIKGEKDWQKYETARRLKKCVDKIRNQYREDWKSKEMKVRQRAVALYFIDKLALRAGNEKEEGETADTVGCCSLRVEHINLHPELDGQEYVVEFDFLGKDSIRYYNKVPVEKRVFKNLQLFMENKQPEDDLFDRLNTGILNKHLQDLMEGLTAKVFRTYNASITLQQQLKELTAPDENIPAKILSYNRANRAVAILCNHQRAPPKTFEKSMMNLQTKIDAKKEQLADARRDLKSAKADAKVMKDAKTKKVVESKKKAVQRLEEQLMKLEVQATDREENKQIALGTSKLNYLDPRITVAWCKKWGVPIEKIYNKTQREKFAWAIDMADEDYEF
Put plainly: Inhibition of topoisomerase 1-mediated SV40 DNA cleavage at 1 to 50 uM by gel electrophoresis.
Settings: not given
On to `CCc1c2c(nc3ccc(O)cc13)-c1cc3c(c(=O)n1C2)COC(=O)[C@]3(O)CC`, for which the outcome was Active.
`CC(=O)OC(C)(C)/C=C/C(=O)[C@](C)(O)[C@H]1[C@H](O)C[C@@]2(C)[C@@H]3CC=C4[C@H](C[C@H](O)C(=O)C4(C)C)[C@]3(C)C(=O)C[C@]12C` [CUCURBITACIN B]: the result was Active.

The values above are taken from ChEMBL document CHEMBL1158138, “Cucurbitane triterpenes from the fruiting bodies and cultivated mycelia of Leucopaxillus gentianeus” (J Nat Prod, 2006).
